Laboratory results: patent US20110146678A1, “PROCESS FOR IMPROVING CRYSTALLINITY” (priority 2008, published 2011)

Assays:
[1] = Aerosolisation efficiency of 500/25 FP/SX combination DPI formulation, NGI via Cyclohaler; assay type: physicochemical; conditions: 500/25 formulation
Description: Following content uniformity testing, […] of the blend containing the FP sample 3 blend or Advair was loaded into size 3 hydroxypropylmethyl cellulose capsules (HPMC, Shionogi Qualicaps S A, Basingstoke, UK). The capsules were stored at 44% RH for 24 h prior to in vitro performance testing.
Testing was performed using a Next Generation Impactor (NGI) with pre-separator, which was connected to a vacuum pump (GE Motors). Prior to testing, the pre-separator was filled with 15 ml of mobile phase and the cups of the NGI cups were coated with 1% v/v silicone oil in hexane to eliminate particle bounce.
For each experiment, two individual capsules of the same formulation were discharged into the NGI at 90 Lpm for 2.8 s via a Cyclohaler (TEVA Pharmaceuticals, Netherlands) to ensure both devices were operated such that 4 kPa pressure drop was generated.
Following aerosolization, the NGI apparatus was dismantled and the inhaler, capsules and each part of the NGI was washed down into known volumes of HPLC mobile phase. The mass of drug deposited on each part of the NGI was determined by HPLC. This protocol was repeated three times for each blend, following which, the fine particle dose (FPD) and fine particle fraction of the loaded dose (FPFLD) were determined. The FPD represented the mass of drug that was collected on stages 3-8 of the NGI.

[2] = pMDI formulation, particle fraction distribution on NGI stages; assay type: physicochemical; conditions: stage 5 cut-off 1.36 μm, listed as micronized material
Description: Both samples were produced in a similar manner to sample 2 of Example 2. Sample 1 was prepared from atomization of a 3% solution of fluticasone propionate in 20% dichloromethane in methanol (3 g in 100 ml) and Sample 5 was prepared from atomization of 3% solution in acetone (3 g in 100 ml). […] The FPF values were 11.80% and 13.80% on stage 5 for samples 5 and 1 respectively compared with 6.20% for micronized material.

[3] = Cyclohaler 90 Lpm, NGI stages 3-8

Row | fine particle fraction for SX ([1]; Cyclohaler) [%] | fine particle fraction for the engineered FP ([1]; Cyclohaler) [%] | FPD for FP [1, 3] [µg] | FPD for SX [1, 3] [µg] | FPF on stage 5 of the NGI [2] [%] | SMILES
1 | 44 | 15.8 | 79 | 11 | – | CCC(=O)O[C@]1(C(=O)SCF)[C@H](C)C[C@H]2[C@@H]3C[C@H](F)C4=CC(=O)C=C[C@]4(C)[C@@]3(F)[C@@H](O)C[C@@]21C [Sample 3, Fluticasone propionate]
2 | – | – | – | – | 6.20 | CCC(=O)O[C@]1(C(=O)SCF)[C@H](C)C[C@H]2[C@@H]3C[C@H](F)C4=CC(=O)C=C[C@]4(C)[C@@]3(F)[C@@H](O)C[C@@]21C [micronized FP, Fluticasone Propionate]
